Measured values taken from publication PMC3914206.

Assays:
Format in all cases: binding
Details in all cases: Compound Concentration 10 µM
[1] = biological target: T1, panel of 442 kinases (Homo sapiens, UniProt P15056, V600E)
T1 construct: purchased KINOMEscan
Description: (§1) We assessed the selectivity of members of this scaffold using the KINOMEscan methodology across a near comprehensive panel of 442 kinases [[18,27]].

[2] = biological target: T2, panel of 442 kinases (Homo sapiens, UniProt P32298)
T2 construct: purchased KINOMEscan
T2 sequence (P32298 whole entry): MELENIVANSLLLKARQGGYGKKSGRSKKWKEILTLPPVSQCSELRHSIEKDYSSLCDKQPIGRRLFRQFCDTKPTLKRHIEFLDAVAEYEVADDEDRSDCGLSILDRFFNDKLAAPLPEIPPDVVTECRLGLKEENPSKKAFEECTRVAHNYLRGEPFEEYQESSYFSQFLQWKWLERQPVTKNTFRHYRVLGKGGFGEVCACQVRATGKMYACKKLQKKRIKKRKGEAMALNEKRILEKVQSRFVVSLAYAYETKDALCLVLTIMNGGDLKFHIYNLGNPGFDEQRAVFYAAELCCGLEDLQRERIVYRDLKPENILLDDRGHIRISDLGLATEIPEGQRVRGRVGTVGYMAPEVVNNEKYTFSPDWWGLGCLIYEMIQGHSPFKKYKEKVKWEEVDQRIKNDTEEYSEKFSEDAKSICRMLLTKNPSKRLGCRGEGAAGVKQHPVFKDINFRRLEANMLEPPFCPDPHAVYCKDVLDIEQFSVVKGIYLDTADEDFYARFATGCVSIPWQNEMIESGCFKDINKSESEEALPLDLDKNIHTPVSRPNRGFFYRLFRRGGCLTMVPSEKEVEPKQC
Description: as §1

[3] = biological target: T3, panel of 442 kinases (Homo sapiens, UniProt P41240)
T3 construct: purchased KINOMEscan
T3 sequence (P41240 whole entry): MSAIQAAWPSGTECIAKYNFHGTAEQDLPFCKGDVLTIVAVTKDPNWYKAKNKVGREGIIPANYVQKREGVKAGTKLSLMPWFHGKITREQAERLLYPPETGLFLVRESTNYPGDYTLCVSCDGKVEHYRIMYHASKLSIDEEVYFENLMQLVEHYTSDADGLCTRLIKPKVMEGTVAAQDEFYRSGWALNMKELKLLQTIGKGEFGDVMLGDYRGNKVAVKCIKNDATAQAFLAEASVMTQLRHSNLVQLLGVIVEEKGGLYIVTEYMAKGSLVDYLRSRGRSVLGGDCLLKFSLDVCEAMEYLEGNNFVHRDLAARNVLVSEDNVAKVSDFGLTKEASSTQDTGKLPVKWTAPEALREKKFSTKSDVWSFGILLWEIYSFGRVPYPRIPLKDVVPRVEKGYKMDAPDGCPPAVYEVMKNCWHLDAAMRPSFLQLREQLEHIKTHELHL
Description: as §1

[4] = biological target: T4, panel of 442 kinases (Homo sapiens, UniProt P49840)
T4 construct: purchased KINOMEscan
T4 sequence (P49840 whole entry): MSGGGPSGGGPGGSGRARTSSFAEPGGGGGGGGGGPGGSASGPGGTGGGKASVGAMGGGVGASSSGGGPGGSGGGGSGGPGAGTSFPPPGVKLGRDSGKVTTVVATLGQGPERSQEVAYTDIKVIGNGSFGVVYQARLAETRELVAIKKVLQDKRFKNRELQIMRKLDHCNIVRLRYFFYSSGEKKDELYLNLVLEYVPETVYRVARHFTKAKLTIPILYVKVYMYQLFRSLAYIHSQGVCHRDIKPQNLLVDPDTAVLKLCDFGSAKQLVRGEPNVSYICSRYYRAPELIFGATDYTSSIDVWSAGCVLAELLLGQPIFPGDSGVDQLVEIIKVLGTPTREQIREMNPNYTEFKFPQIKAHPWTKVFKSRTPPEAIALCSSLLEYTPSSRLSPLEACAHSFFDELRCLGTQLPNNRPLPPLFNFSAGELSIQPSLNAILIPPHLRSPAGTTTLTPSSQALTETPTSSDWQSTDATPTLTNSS
Description: as §1

T1 sequence (P15056 whole entry V600E): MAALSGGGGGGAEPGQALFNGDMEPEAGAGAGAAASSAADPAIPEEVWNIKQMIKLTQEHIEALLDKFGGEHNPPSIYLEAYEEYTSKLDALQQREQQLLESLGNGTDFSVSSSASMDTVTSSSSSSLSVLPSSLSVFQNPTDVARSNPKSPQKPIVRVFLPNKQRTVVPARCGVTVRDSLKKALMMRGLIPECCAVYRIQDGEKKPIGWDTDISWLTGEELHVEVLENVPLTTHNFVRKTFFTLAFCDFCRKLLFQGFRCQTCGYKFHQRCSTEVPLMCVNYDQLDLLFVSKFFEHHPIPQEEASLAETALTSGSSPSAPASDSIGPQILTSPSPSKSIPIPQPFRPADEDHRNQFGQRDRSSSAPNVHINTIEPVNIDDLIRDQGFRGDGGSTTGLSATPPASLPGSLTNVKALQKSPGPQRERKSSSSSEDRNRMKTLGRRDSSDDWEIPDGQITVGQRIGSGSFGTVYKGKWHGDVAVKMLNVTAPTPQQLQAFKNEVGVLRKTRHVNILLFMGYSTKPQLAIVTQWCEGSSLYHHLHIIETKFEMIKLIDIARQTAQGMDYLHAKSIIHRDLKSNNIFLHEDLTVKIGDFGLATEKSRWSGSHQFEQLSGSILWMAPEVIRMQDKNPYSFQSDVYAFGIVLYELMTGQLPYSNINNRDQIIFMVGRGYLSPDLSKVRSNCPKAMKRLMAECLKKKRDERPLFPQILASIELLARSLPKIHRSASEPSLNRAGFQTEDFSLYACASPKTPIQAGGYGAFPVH

Row | SMILES | KINOMEscan: BRAF(V600E) [1] | KINOMEscan: GRK4 [2] | KINOMEscan: CSK [3] | KINOMEscan: GSK3A [4]
1 | COc1cc(C(=O)N2CCC(N3CCN(C)CC3)CC2)ccc1Nc1ncc2c(n1)N(C)c1ccccc1C(=O)N2C [15 (LRRK2-IN-1)] | 100 | 86 | 90 | 100
2 | COc1cc(C(=O)N2CCC(N3CCN(C)CC3)CC2)ccc1Nc1ncc2c(n1)N1CCc3cccc(c31)C(=O)N2C [Compound 24] |  |  | 75 | 
3 | COc1cc(C(=O)N2CCC(N3CCN(C)CC3)CC2)ccc1Nc1ncc2c(n1)N(C1CCCC1)c1ccccc1C(=O)N2C [Compound 25, 11-cyclopentyl-2-((2-methoxy-4-(4-(4-methylpiperazin-1-yl)piperidine-1-carbonyl)phenyl)amino)-5-methyl-5H-benzo[e]pyrimido[5,4-b][1,4]diazepin-6(11H)-one] | 100 | 98 | 74 | 100
4 | CCOc1cc(C(=O)N2CCC(N3CCN(C)CC3)CC2)ccc1Nc1ncc2c(n1)N(C1CCCC1)c1ccccc1C(=O)N2C [Compound 26] | 100 | 100 | 100 | 100
